Laboratory results reported in the Deep4Chem optical property database.

Assay: solvent given as SMILES
[1] = in O=P(c1ccccc1)(c1ccccc1)c1ccccc1Oc1ccccc1P(=O)(c1ccccc1)c1ccccc1

## Cc1ccc(C2=C3C=CC=[N+]3[B-](F)(F)n3cccc32)cc1
In C1CCCCC1
  emission maximum: 516 nm
In CC#N
  emission maximum: 514.5 nm
In CCO
  emission maximum: 514.5 nm
In CCOC(C)=O
  emission maximum: 514.5 nm
In CO
  emission maximum: 513.5 nm
In OCC(F)(F)F
  emission maximum: 509.5 nm

## C(S/C=C/c1ccc(-c2ccc(/C=C/SC=C(c3ccccc3)c3ccccc3)cc2)cc1)=C(c1ccccc1)c1ccccc1
In ClCCl
  emission maximum: 441 nm

## CC(C)(C)c1ccc(-c2cc(-c3ccc(-c4cc(-c5ccc(C(C)(C)C)cc5)c(C(=O)NCc5ccccc5)s4)s3)sc2C(=O)NCc2ccccc2)cc1
In ClCCl
  emission maximum: 449 nm

## F[B-]1(F)Oc2ccccc2-c2cc(-n3c4ccccc4c4ccccc43)cc[n+]21
In Cc1ccccc1
  emission maximum: 449 nm
[1]
  emission maximum: 475 nm

## C1=C(c2ccc(-c3cccs3)s2)CCCC1
In C1CCOC1
  emission maximum: 423 nm
In CC#N
  emission maximum: 415 nm
In CCCCCC
  emission maximum: 411 nm
In CCO
  emission maximum: 445 nm
In OCCOCCO
  emission maximum: 446 nm
In c1ccncc1
  emission maximum: 423 nm

## c1ccc(-c2ccc(-c3ccc4c(c3)CCCO4)cc2)cc1
In C1CCCCC1
  emission maximum: 359 nm

## COc1ccc(N(c2ccc(/C=C(\C)c3ccccc3)cc2)c2ccc(/C=C(\C)c3ccccc3)cc2)cc1
In Cc1ccccc1
  emission maximum: 435 nm

## N#Cc1c(-n2c3ccccc3c3ccccc32)cc(N2c3ccccc3C(c3ccccc3)(c3ccccc3)c3ccccc32)cc1-n1c2ccccc2c2ccccc21
In Cc1ccccc1
  emission maximum: 471 nm

## CCN(CC)c1ccc2c(-c3ccccc3C(=O)O)c3c([o+]c2c1)/C(=C/c1ccc(N(C)C)s1)CCC3
In ClCCl
  emission maximum: 766 nm

## CCOC(=O)c1ccc(C2=CC3=c4cc(-c5ccc(C(=O)OCC)cc5)c5nc(C(F)(F)C(F)(F)C(F)(F)F)nc6c(-c7ccc(C(=O)OCC)cc7)cc(c4c65)C4=CC(c5ccc(C(=O)OCC)cc5)=C5N=C(C(F)(F)C(F)(F)C(F)(F)F)N=C2C5C43)cc1 (configuration not stated)
In C1CCOC1
  emission maximum: 523 nm

## C[Si]1(c2ccccc2)C(c2ccc3c(c2)c2ccccc2n3-c2ccccc2)=C(c2ccccc2)C(c2ccccc2)=C1c1ccc2c(c1)c1ccccc1n2-c1ccccc1
In C1CCOC1
  emission maximum: 526 nm

## N#Cc1ccc(/C=C/C(F)(F)F)c(N)c1
In C1CCOC1
  emission maximum: 439 nm

## COc1ccc(C2=C/C(=C\c3ccc([N+](=O)[O-])cc3)C(=O)N2CC(C)C)cc1
In C1COCCO1
  emission maximum: 616 nm

## N#Cc1cc(C#N)cc(-n2c3ccccc3c3cc(-c4ccc5c(c4)c4ccccc4n5-c4cc(C#N)cc(C#N)c4)ccc32)c1
In Cc1ccccc1
  emission maximum: 470 nm
[1]
  emission maximum: 470 nm

## CCCCCCCCOC(=O)c1cc2ccc3ccccc3c2c(C#N)c1N
In Cc1ccccc1
  emission maximum: 467 nm

## CCCC1(CCC)c2cc(-c3cccc(Cc4ccc(/C=C/c5ccccc5)cc4)c3)ccc2-c2ccc(-c3cccc(Cc4ccc(/C=C/c5ccccc5)cc4)c3)cc21
In C1CCCCC1
  emission maximum: 359 nm

## CC1=NN(c2cccc3ccccc23)[B-](F)(F)[n+]2ccccc21
In ClCCl
  emission maximum: 538 nm

## FC(F)(F)c1ccc(-c2c3cccc4c5cccc6c(-c7ccc(C(F)(F)F)cc7)c7cccc8c9cccc2c9c(c34)c(c65)c78)cc1
In Cc1ccccc1
  emission maximum: 699 nm

## CC(=O)c1ccc(NC(=O)c2ccc(N(C)C)cc2)cc1
In C1CCCCC1
  emission maximum: 345 nm
In C1CCOC1
  emission maximum: 468 nm
In CC#N
  emission maximum: 550 nm
In CCOCC
  emission maximum: 470 nm

## O=S1(=O)Nc2ccc3c(c2-c2ccccc21)-c1ccccc1S(=O)(=O)N3
In ClCCl
  emission maximum: 425 nm

## c1ccc(-c2nc3sc4ccccc4c3s2)cc1
In CS(C)=O
  emission maximum: 412 nm

## COc1ccc(-c2cc3c(s2)c(-c2ccccc2)cc(=O)n3C)cc1
In CC#N
  emission maximum: 435 nm
In ClCCl
  emission maximum: 437 nm

## COc1ccc(N(c2ccc(OC)cc2)c2ccc(-c3ccc(C=C(C#N)C#N)s3)cc2)cc1
In ClC(Cl)Cl
  emission maximum: 700 nm

## CCCCCCN1C(=O)C(c2ccc(-c3ccc(-n4c5ccccc5c5ccccc54)cc3)cc2)=C(c2ccc(-c3ccc(-n4c5ccccc5c5ccccc54)cc3)cc2)C1=O
In ClC(Cl)Cl
  emission maximum: 552 nm
In c1ccc2c(c1)c1ccccc1n2-c1ccc(-c2ccc(-n3c4ccccc4c4ccccc43)cc2)cc1
  emission maximum: 580 nm

## CCN(CC)c1ccc2cc(C#N)/c(=N\C(=O)c3ccccc3)oc2c1
In CCO
  emission maximum: 472 nm
In ClCCl
  emission maximum: 460 nm

## CC1(C)c2ccccc2-n2c(-c3ccc(-n4c5ccc(-n6c7ccccc7c7ccccc76)cc5c5cc(-n6c7ccccc7c7ccccc76)ccc54)cc3)nc3cccc1c32
In Cc1ccccc1
  emission maximum: 401 nm
[1]
  emission maximum: 409 nm

## Cc1cc(O)c(C(=O)/C=C/c2cccc(O)c2)c(=O)o1
In CC#N
  emission maximum: 523 nm
In ClCCl
  emission maximum: 491 nm

## Cc1ccccc1
In C1CCCCC1
  emission maximum: 286.62 nm

## N#CC1=CC=CC(C#N)=P1(c1ccccc1)c1ccccc1
In ClC(Cl)Cl
  emission maximum: 491 nm

## CCC1=C(C)C(=O)n2c1cc1c(C)c(CCC(=O)OC)c(C)n1c2=O
In CO
  emission maximum: 530 nm
In CS(C)=O
  emission maximum: 505 nm
In ClC(Cl)Cl
  emission maximum: 495 nm
In c1ccccc1
  emission maximum: 470 nm

## C1=Cc2ccc(N(c3ccccc3)c3cccc4ccccc34)cc2C2(c3cc(N(c4ccccc4)c4cccc5ccccc45)ccc31)c1ccccc1-c1ccccc12
In ClCCl
  emission maximum: 454 nm

## c1ccc(-c2nc(-c3ccc(-c4nc(-c5ccccc5)c(-c5ccccc5)o4)cc3)oc2-c2ccccc2)cc1
In C1COCCO1
  emission maximum: 428 nm

## c1ccc2[nH]c(-c3cc(-c4nc5ccccc5[nH]4)cc(-c4nc5ccccc5[nH]4)c3)nc2c1
In CS(C)=O
  emission maximum: 379.1 nm

## CCCCCCCCCCC1(CCCCCCCCCC)c2cc(-c3nc4ccccc4s3)ccc2-c2ccc(N3C(=O)c4ccc5c6ccc7c8c(ccc(c9ccc(c4c59)C3=O)c86)C(=O)N(c3ccc4c(c3)C(CCCCCCCCCC)(CCCCCCCCCC)c3cc(-c5nc6ccccc6s5)ccc3-4)C7=O)cc21
In Cc1ccccc1
  emission maximum: 536 nm
In ClCCl
  emission maximum: 533 nm

## COc1ccc(-c2nc(-c3ccc(C)cc3)c3ccccn23)cc1
In ClC(Cl)Cl
  emission maximum: 521 nm

## CCCCCCCCCCCCCCCCCCOc1ccc([B-]23NC(c4ccccc4)=Nc4cccc([n+]42)N=C(c2ccccc2)N3)cc1
In ClCCl
  emission maximum: 511 nm

## C[Si](C)(c1c2ccccc2cc2ccccc12)[Si](C)(C)c1c2ccccc2cc2ccccc12
In C1CCCCC1
  emission maximum: 425 nm
In CC#N
  emission maximum: 425 nm

## CCCCCCn1c2ccccc2c2cc(/C=C/c3cc(=O)oc4cc(C)ccc34)ccc21
In CS(C)=O
  emission maximum: 542 nm
In ClC(Cl)Cl
  emission maximum: 504 nm

## c1ccc2c(c1)Cc1ccccc1N2c1c2ccccc2c(N2c3ccccc3Cc3ccccc32)c2ccccc12
In Cc1ccccc1
  emission maximum: 553 nm

## COc1ccc2c3c(cccc13)C(=O)c1ccccc1-2
In CC#N
  emission maximum: 526.87 nm
In CC(C)=O
  emission maximum: 520.02 nm
In CC(C)O
  emission maximum: 541.13 nm
In CCCCOCCCC
  emission maximum: 487.09 nm
In CCOC(C)=O
  emission maximum: 506.07 nm
In CCOCC
  emission maximum: 498.01 nm
In CO
  emission maximum: 560.85 nm
In Cc1ccccc1
  emission maximum: 500 nm
In Clc1ccccc1
  emission maximum: 507.87 nm
In N#Cc1ccccc1
  emission maximum: 520.02 nm
In O=C1CCCCC1
  emission maximum: 520.02 nm

## COC(=O)c1ccc(C2=C3C=CC(C)=[N+]3[B-](F)(F)n3c(C)ccc32)cc1
In C1CCCCC1
  emission maximum: 533 nm
In C1CCOC1
  emission maximum: 536 nm
In CC#N
  emission maximum: 531 nm
In CCOC(C)=O
  emission maximum: 533 nm
In CO
  emission maximum: 533 nm
In Cc1ccccc1
  emission maximum: 538 nm
In ClC(Cl)Cl
  emission maximum: 538 nm

## C(=C\c1cc(-c2ccc3ccccc3c2)c(/C=C/c2ccc(N(c3ccccc3)c3ccccc3)cc2)cc1-c1ccc2ccccc2c1)/c1ccc(N(c2ccccc2)c2ccccc2)cc1
In ClCCl
  emission maximum: 489 nm

## Cc1ccccc1C1=C2C=CC(=[N+](C)C)C=[C]2[Ge]([CH3])([CH3])[c]2cc(N(C)C)ccc21
In O
  emission maximum: 649 nm

## N#CC1=C(c2ccc(-c3cccs3)s2)CCC1
In C1CCOC1
  emission maximum: 441 nm
In CC#N
  emission maximum: 445 nm
In CCCCCC
  emission maximum: 428 nm
In CCO
  emission maximum: 443 nm
In OCCOCCO
  emission maximum: 455 nm
In c1ccncc1
  emission maximum: 450 nm

## COc1cc2c(cc1OC)C1=C[C@H](c3ccc(Cl)cc3)C3(C(C#N)=C(C#N)N1CC2)c1ccccc1-c1ccccc13
In ClCCl
  emission maximum: 405 nm

## CCOC(CN1C(=O)C2=C(c3cc4cc(C(C)(C)C)cc(C(C)(C)C)c4o3)N(CC(OCC)OCC)C(=O)C2=C1c1cc2cc(C(C)(C)C)cc(C(C)(C)C)c2o1)OCC
In ClC(Cl)Cl
  emission maximum: 594 nm

## COC(=O)/C(C#N)=c1\s/c(=c2/s/c(=C(/C#N)C(=O)OC)c3cc(-c4ccc5c(c4)C(C)(C)c4ccccc4-5)sc23)c2sc(-c3ccc4c(c3)C(C)(C)c3ccccc3-4)cc12
In Cc1ccccc1
  emission maximum: 682 nm

## F[B-]1(F)OC(c2ccccc2)=Cc2c3ccccc3c3ccccc3[n+]21
In ClC(Cl)Cl
  emission maximum: 447 nm

## Cc1nc(-c2cc(C(F)(F)F)ccc2O)n2c1CCCC2
In ClCCl
  emission maximum: 432 nm

## CCn1ncc2c3c(C#N)c4c5ccccc5n(CC)c4nc3ccc21
In CCOC(C)=O
  emission maximum: 476 nm

## CC1(C)c2ccccc2N(c2ccc(-c3nc4cccc5c4n3-c3ccccc3C5(C)C)cc2)c2ccccc21
In Cc1ccccc1
  emission maximum: 450 nm
[1]
  emission maximum: 449 nm

## c1ccc(-c2nnc(-c3ccc(N4c5ccccc5Oc5ccccc54)cc3)o2)cc1
In Cc1ccccc1
  emission maximum: 495 nm
In c1ccc(-n2c(-c3c(-n4c5ccccc5c5ccccc54)cccc3-n3c4ccccc4c4ccccc43)nc3ccccc32)cc1
  emission maximum: 498 nm

## C[C@]12SC(=O)C=C1c1nc(-c3ccc(O)cc3)[nH]c1C1=CC(=O)S[C@@]12C
In CC#N
  emission maximum: 536 nm

## CN(c1ccccc1)c1ccc(/C=C2\C(=O)c3ccccc3S2(=O)=O)cc1
In C1CCOC1
  emission maximum: 532 nm
In C1COCCO1
  emission maximum: 542 nm
In CC#N
  emission maximum: 511 nm
In CC(C)=O
  emission maximum: 537 nm
In CCOC(C)=O
  emission maximum: 533 nm
In CN(C)C=O
  emission maximum: 524 nm
In CO
  emission maximum: 525 nm
In CS(C)=O
  emission maximum: 552 nm
In Cc1ccccc1
  emission maximum: 576 nm
In ClC(Cl)Cl
  emission maximum: 532 nm
In ClCCl
  emission maximum: 547 nm

## CCCCCCCCCCCCN(CCCCCCCCCCCC)c1ccc2c(c1)oc(=O)c1c(=O)oc3ccccc3c12
In CS(C)=O
  emission maximum: 562 nm
In ClCCl
  emission maximum: 528 nm

## Clc1ccccc1N1c2c(sc3ccccc23)Sc2sc3ccccc3c21
In ClCCl
  emission maximum: 574 nm

## COc1ccc2c(c1)CCc1c(-c3ccccc3)c3n(c1-2)[B-](F)(F)[N+]1=c2ccc4ccccc4c2=C(c2ccccc2)C1=N3
In ClC(Cl)Cl
  emission maximum: 730 nm
